Data from the NIST ThermoML archive (doi:10.1016/j.jct.2015.02.008).

Legend:
[1] = for molar entropy: 101.33 kPa, Vacuum adiabatic calorimetry
[2] = Molar enthalpy of transition or fusion; settings: Crystal; Adiabatic calorimetry
[3] = molar heat capacity at saturation pressure; settings: Vacuum adiabatic calorimetry

Oc1cccc2ccccc12 [1-naphthol]
Settings	Triple point temperature [K]	molar entropy [J/K/mol]	molar heat capacity [J/K/mol]
[1], 5 K, Crystal	–	0.1164	–
[1], 10 K, Crystal	–	1.006	–
[1], 20 K, Crystal	–	5.712	–
[1], 30 K, Crystal	–	12.49	–
[1], 40 K, Crystal	–	19.88	–
[1], 50 K, Crystal	–	27.32	–
[1], 60 K, Crystal	–	34.57	–
[1], 70 K, Crystal	–	41.6	–
[1], 80 K, Crystal	–	48.37	–
[1], 90 K, Crystal	–	54.94	–
[1], 100 K, Crystal	–	61.3	–
[1], 120 K, Crystal	–	73.57	–
[1], 140 K, Crystal	–	85.45	–
[1], 160 K, Crystal	–	97.07	–
[1], 180 K, Crystal	–	108.59	–
[1], 200 K, Crystal	–	120.05	–
[1], 220 K, Crystal	–	131.53	–
[1], 240 K, Crystal	–	143.02	–
[1], 260 K, Crystal	–	154.55	–
[1], 280 K, Crystal	–	166.13	–
[1], 298.15 K, Crystal	–	176.67	–
[1], 300 K, Crystal	–	177.75	–
[1], 320 K, Crystal	–	189.4	–
[1], 340 K, Crystal	–	201.04	–
[1], 360 K, Crystal	–	212.69	–
[1], 368.49 K, Crystal	–	217.66	–
[1], 368.49 K, Liquid	–	283.48	–
[1], 380 K, Liquid	–	292.12	–
[1], 400 K, Liquid	–	306.76	–
[1], 420 K, Liquid	–	320.97	–
[1], 440 K, Liquid	–	334.8	–
[1], Crystal, Adiabatic calorimetry	368.49	–	–
[3], 4.908 K, Crystal	–	–	0.3991
[3], 5 K, Crystal	–	–	0.4074
[3], 5.887 K, Crystal	–	–	0.6735
[3], 6.773 K, Crystal	–	–	0.9894
[3], 7.696 K, Crystal	–	–	1.413
[3], 8.736 K, Crystal	–	–	1.995
[3], 9.852 K, Crystal	–	–	2.752
[3], 10 K, Crystal	–	–	2.86
[3], 11.02 K, Crystal	–	–	3.658
[3], 12.26 K, Crystal	–	–	4.664
[3], 13.57 K, Crystal	–	–	5.837
[3], 14.97 K, Crystal	–	–	7.2
[3], 16.55 K, Crystal	–	–	8.755
[3], 18.3 K, Crystal	–	–	10.52
[3], 20 K, Crystal	–	–	12.18
[3], 20.23 K, Crystal	–	–	12.41
[3], 22.38 K, Crystal	–	–	14.54
[3], 24.77 K, Crystal	–	–	16.86
[3], 27.44 K, Crystal	–	–	19.4
[3], 30 K, Crystal	–	–	21.7
[3], 30.38 K, Crystal	–	–	22.03
[3], 33.63 K, Crystal	–	–	24.81
[3], 37.26 K, Crystal	–	–	27.77
[3], 40 K, Crystal	–	–	29.84
[3], 41.28 K, Crystal	–	–	30.77
[3], 45.76 K, Crystal	–	–	34.06
[3], 50 K, Crystal	–	–	36.83
[3], 50.77 K, Crystal	–	–	37.31
[3], 51.97 K, Crystal	–	–	38.07
[3], 56.32 K, Crystal	–	–	40.7
[3], 56.46 K, Crystal	–	–	40.78
[3], 60 K, Crystal	–	–	42.91
[3], 61.85 K, Crystal	–	–	43.99
[3], 68.38 K, Crystal	–	–	47.41
[3], 70 K, Crystal	–	–	48.25
[3], 75.62 K, Crystal	–	–	51.08
[3], 80 K, Crystal	–	–	53.33
[3], 83.14 K, Crystal	–	–	54.91
[3], 90 K, Crystal	–	–	58.16
[3], 91.41 K, Crystal	–	–	58.81
[3], 100 K, Crystal	–	–	62.77
[3], 100.48 K, Crystal	–	–	62.99
[3], 110.08 K, Crystal	–	–	67.46
[3], 119.95 K, Crystal	–	–	72.21
[3], 120 K, Crystal	–	–	72.23
[3], 130.14 K, Crystal	–	–	77.14
[3], 140 K, Crystal	–	–	82.08
[3], 140.31 K, Crystal	–	–	82.24
[3], 150.42 K, Crystal	–	–	87.34
[3], 160 K, Crystal	–	–	92.43
[3], 160.43 K, Crystal	–	–	92.66
[3], 170.36 K, Crystal	–	–	98.04
[3], 180 K, Crystal	–	–	103.34
[3], 180.29 K, Crystal	–	–	103.5
[3], 190.33 K, Crystal	–	–	109.13
[3], 200 K, Crystal	–	–	114.64
[3], 200.45 K, Crystal	–	–	114.9
[3], 210.56 K, Crystal	–	–	120.76
[3], 220 K, Crystal	–	–	126.26
[3], 220.64 K, Crystal	–	–	126.63
[3], 230.69 K, Crystal	–	–	132.62
[3], 240 K, Crystal	–	–	138.13
[3], 240.71 K, Crystal	–	–	138.54
[3], 250.73 K, Crystal	–	–	144.61
[3], 260 K, Crystal	–	–	150.24
[3], 260.74 K, Crystal	–	–	150.69
[3], 270.62 K, Crystal	–	–	156.67
[3], 280 K, Crystal	–	–	162.4
[3], 280.51 K, Crystal	–	–	162.71
[3], 290.52 K, Crystal	–	–	168.83
[3], 298.15 K, Crystal	–	–	173.51
[3], 300 K, Crystal	–	–	174.64
[3], 300.53 K, Crystal	–	–	174.97
[3], 310.57 K, Crystal	–	–	180.81
[3], 320 K, Crystal	–	–	186.29
[3], 320.58 K, Crystal	–	–	186.63
[3], 331.02 K, Crystal	–	–	192.65
[3], 340 K, Crystal	–	–	197.95
[3], 341.47 K, Crystal	–	–	198.62
[3], 351.79 K, Crystal	–	–	205.33
[3], 360 K, Crystal	–	–	210.16
[3], 360.7 K, Crystal	–	–	210.52
[3], 368.49 K, Crystal	–	–	215.56
[3], 368.49 K, Liquid	–	–	279.12
[3], 375.44 K, Liquid	–	–	281.15
[3], 375.53 K, Liquid	–	–	281.2
[3], 380 K, Liquid	–	–	282.47
[3], 382.75 K, Liquid	–	–	283.25
[3], 389.88 K, Liquid	–	–	285.37
[3], 400 K, Liquid	–	–	288.35
[3], 405.81 K, Liquid	–	–	290.05
[3], 420 K, Liquid	–	–	294.27
[3], 423.59 K, Liquid	–	–	295.34
[3], 438.9 K, Liquid	–	–	299.86
[3], 440 K, Liquid	–	–	300.19

[1], Liquid
Settings	mass density [kg/m3]	vapor or sublimation pressure [kPa]
369.98 K, Inclined piston gauge	–	0.1033
373.12 K, Inclined piston gauge	–	0.1259
374.97 K, Inclined piston gauge	–	0.1406
383.13 K, Inclined piston gauge	–	0.2221
384.98 K, Inclined piston gauge	–	0.2455
393 K, Pycnometric method	1063	–
393.13 K, Inclined piston gauge	–	0.3779
394.98 K, Inclined piston gauge	–	0.4163
403.12 K, Inclined piston gauge	–	0.6229
404.96 K, Inclined piston gauge	–	0.6815
408.13 K, Inclined piston gauge	–	0.7902
413.12 K, Inclined piston gauge	–	0.9955
414.97 K, Inclined piston gauge	–	1.085
418.12 K, Inclined piston gauge	–	1.249
423.12 K, Inclined piston gauge	–	1.551
424.96 K, Inclined piston gauge	–	1.68
429.2 K, Twin ebulliometer	–	2
429.96 K, Inclined piston gauge	–	2.071
434.97 K, Inclined piston gauge	–	2.537
436.27 K, Twin ebulliometer	–	2.666
439.96 K, Inclined piston gauge	–	3.091
446.77 K, Twin ebulliometer	–	4
454.6 K, Twin ebulliometer	–	5.333
466.26 K, Twin ebulliometer	–	7.999
475.01 K, Twin ebulliometer	–	10.67
482.08 K, Twin ebulliometer	–	13.33
489.42 K, Twin ebulliometer	–	16.66
495.53 K, Twin ebulliometer	–	19.93
503.55 K, Twin ebulliometer	–	25.02
511.63 K, Twin ebulliometer	–	31.17
519.75 K, Twin ebulliometer	–	38.56
527.93 K, Twin ebulliometer	–	47.37
536.16 K, Twin ebulliometer	–	57.81
544.44 K, Twin ebulliometer	–	70.11
552.77 K, Twin ebulliometer	–	84.53
561.14 K, Twin ebulliometer	–	101.32
569.59 K, Twin ebulliometer	–	120.78

Settings	Molar enthalpy of transition or fusion [kcal/mol]
[2]	5.798
